According to ChEMBL document CHEMBL1667844, “Synthesis, structure-activity relationships and preliminary antitumor evaluation of benzothiazole-2-thiol derivatives as novel apoptosis inducers” (Bioorg Med Chem Lett, 2011):

Columns and labels:
[1] = test system: HepG2; test: Cytotoxicity against human HepG2 cells after 48 hrs by MTT assay; assay type: functional, cell-based; details: HepG2, 48 h
[2] = test system: MCF7; test: Cytotoxicity against human MCF7 cells after 48 hrs by MTT assay; assay type: functional, cell-based; details: MCF7, 48 h
[3] = test system: HCT-116; test: Cytotoxicity against human HCT116 cells after 48 hrs by MTT assay; assay type: functional, cell-based; details: HCT-116, 48 h
[4] = test system: SW480; test: Cytotoxicity against human SW480 cells after 48 hrs by MTT assay; assay type: functional, cell-based; details: SW480, 48 h
[5] = test system: SW-620; test: Cytotoxicity against human SW620 cells after 48 hrs by MTT assay; assay type: functional, cell-based; details: SW-620, 48 h
[6] = test system: A549; test: Cytotoxicity against human A549 cells after 48 hrs by MTT assay; assay type: functional, cell-based; details: A549, 48 h
[7] = test system: PC-3; test: Cytotoxicity against human PC3 cells after 48 hrs by MTT assay; assay type: functional, cell-based; details: PC-3, 48 h
[8] = test system: BXPC-3; test: Cytotoxicity against human BxPC3 cells after 48 hrs by MTT assay; assay type: functional, cell-based; details: BXPC-3, 48 h
[9] = test system: A-431; test: Cytotoxicity against human A431 cells after 48 hrs by MTT assay; assay type: functional, cell-based; details: A-431, 48 h
[10] = test system: HeLa; test: Cytotoxicity against human HeLa cells after 48 hrs by MTT assay; assay type: functional, cell-based
[11] = test system: A-375; test: Cytotoxicity against human A375 cells after 48 hrs by MTT assay; assay type: functional, cell-based; details: A-375, 48 h
[12] = test system: SK-OV-3; test: Cytotoxicity against human SKOV3 cells after 48 hrs by MTT assay; assay type: functional, cell-based; details: SK-OV-3, 48 h
[13] = test system: MDA-MB-468; test: Cytotoxicity against human MDA-MB-468 cells after 48 hrs by MTT assay; assay type: functional, cell-based; details: MDA-MB-468, 48 h
[14] = test system: SK-BR-3; test: Cytotoxicity against human SK-BR-3 cells after 48 hrs by MTT assay; assay type: functional, cell-based; details: SK-BR-3, 48 h
[15] = test system: HepG2; test: Induction of apoptosis in human HepG2 cells assessed as DNA content at sub-G1 phase at 0.3 uM after 24 hrs using propidium iodide staining by flow cytometry (reference value: 4.3 %); assay type: functional
[16] = test system: HepG2; test: Induction of apoptosis in human HepG2 cells assessed as DNA content at sub-G1 phase at 0.6 uM after 24 hrs using propidium iodide staining by flow cytometry (reference value: 4.3 %); assay type: functional
[17] = test system: HepG2; test: Induction of apoptosis in human HepG2 cells assessed as DNA content at sub-G1 phase at 1.2 uM after 24 hrs using propidium iodide staining by flow cytometry (reference value: 4.3 %); assay type: functional
[18] = test system: HepG2; test: Induction of apoptosis in human HepG2 cells assessed as DNA content at sub-G1 phase after 24 hrs using propidium iodide staining by flow cytometry; assay type: functional, cell-based
[19] = test system: HepG2; test: Induction of apoptosis in human HepG2 cells assessed as morphological changes after 24 hrs using propidium iodide staining by fluorescence microscopic analysis; assay type: functional, cell-based

| Structure (SMILES) | IC50 [1] | IC50 [2] | further results |
| --- | --- | --- | --- |
| COc1ccc(CNC(=O)CSc2nc3ccc(NC(=O)c4ccccc4OC)cc3s2)cc1 | 2.1 µM | 9.3 µM |  |
| COc1ccc(CNC(=O)CSc2nc3ccc(NC(C)=O)cc3s2)cc1 | 11.2 µM | 20.5 µM |  |
| CNC(=O)CSc1nc2ccc(NC(=O)c3ccccc3)cc2s1 | 26.5 µM | 34.4 µM |  |
| CNC(=O)CSc1nc2ccc(NC(=O)c3ccc(Cl)cc3)cc2s1 | 15.3 µM | 29.4 µM |  |
| COc1ccccc1C(=O)Nc1ccc2nc(SCC(=O)NCc3ccc(Cl)cc3)sc2c1 | 0.6 µM | 1.1 µM | IC50 [3]: 1.5 µM; IC50 [4]: 5.4 µM; IC50 [5]: 4.2 µM; IC50 [6]: 2 µM; IC50 [7]: 4.6 µM; IC50 [8]: 4.4 µM; IC50 [9]: 1.1 µM; IC50 [10]: 4.2 µM; IC50 [11]: 2.2 µM; IC50 [12]: 6 µM; IC50 [13]: 2.3 µM; IC50 [14]: 1.2 µM; Activity [15]: 19.2%; Activity [16]: 35.9%; Activity [17]: 55.4%; Activity [18]: Dose-dependent effect; Activity [19]: Dose-dependent effect |
| CNC(=O)CSc1nc2ccc(NC(=O)c3ccc([N+](=O)[O-])cc3)cc2s1 | > 100 µM | > 100 µM |  |
| CC(=O)Nc1ccc2nc(SCC(=O)NCc3ccc(Cl)cc3)sc2c1 | 6.7 µM | 10.2 µM |  |
| COc1ccccc1C(=O)Nc1ccc2nc(SCC(=O)NCc3ccccc3)sc2c1 | 8 µM | 17.2 µM |  |
| COc1ccc(CNC(=O)CSc2nc3ccc(NC(=O)CCl)cc3s2)cc1 | 2 µM | 5.1 µM |  |
| O=C(CSc1nc2ccc(NC(=O)CCl)cc2s1)NCc1ccc(Cl)cc1 | 1.8 µM | 4.9 µM |  |
| O=C(CSc1nc2ccc(NC(=O)CCl)cc2s1)NCc1ccccc1 | 1.1 µM | 4.2 µM | IC50 [3]: 1.3 µM; IC50 [4]: 5.2 µM; IC50 [5]: 1.2 µM; IC50 [6]: 4 µM; IC50 [7]: 6.1 µM; IC50 [8]: 6.6 µM; IC50 [9]: 4.4 µM; IC50 [10]: 4.9 µM; IC50 [11]: 1.8 µM; IC50 [12]: 4.8 µM; IC50 [13]: 4.1 µM; IC50 [14]: 8.8 µM |
| COc1ccc(CNC(=O)CSc2nc3ccc(NC(=O)c4ccccc4)cc3s2)cc1 | 12.7 µM | 21.2 µM |  |
| COc1ccc(CNC(=O)CSc2nc3ccc(NC(=O)c4ccc([N+](=O)[O-])cc4)cc3s2)cc1 | > 100 µM | > 100 µM |  |
| O=C(CSc1nc2ccc(NC(=O)c3ccccc3)cc2s1)NCc1ccc(Cl)cc1 | 30.1 µM | 33.7 µM |  |
| CC(=O)Nc1ccc2nc(SCC(=O)NCc3ccccc3)sc2c1 | 9.2 µM | 17.6 µM |  |
| O=C(CSc1nc2ccc(NC(=O)c3ccc(Cl)cc3)cc2s1)NCc1ccc(Cl)cc1 | 17.8 µM | 29.3 µM |  |
| O=C(CSc1nc2ccc(NC(=O)c3ccc([N+](=O)[O-])cc3)cc2s1)NCc1ccc(Cl)cc1 | > 100 µM | > 100 µM |  |
| CNC(=O)CSc1nc2ccc(NC(C)=O)cc2s1 | > 100 µM | > 100 µM |  |
| CNC(=O)CSc1nc2ccc(NC(=O)c3ccccc3OC)cc2s1 | 18.5 µM | 23.4 µM |  |
| O=C(CSc1nc2ccc(NC(=O)c3ccc(Cl)cc3)cc2s1)NCc1ccccc1 | 25.4 µM | 25.9 µM |  |
| O=C(CSc1nc2ccc(NC(=O)c3ccccc3)cc2s1)NCc1ccccc1 | 34.2 µM | 35.6 µM |  |
| COc1ccc(CNC(=O)CSc2nc3ccc(NC(=O)c4ccc(Cl)cc4)cc3s2)cc1 | 7.4 µM | 19.2 µM |  |
| CNC(=O)CSc1nc2ccc(NC(=O)CCl)cc2s1 | 1.9 µM | 5 µM |  |
| O=C(CSc1nc2ccc(NC(=O)c3ccc([N+](=O)[O-])cc3)cc2s1)NCc1ccccc1 | > 100 µM | > 100 µM |  |
